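Growth conditions: 96-well plates. Treatment: test compound, 48 hours, 5 concentrations. Analysis: linear interpolation between bracketing concentrations; unreached endpoints set to highest concentration. TGI: concentration producing complete growth inhibition.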

Some test systems named below: CCRF-CEM leukemia; HCC-2998 colon; T-47D breast; K-562 leukemia; OVCAR-8 ovarian; HOP-92 NSCLC; CAKI-1 renal; MDA-N; SK-OV-3 ovarian; U251 CNS.
Holding throughout (test): NCI anticancer screen, dose series, 48 h

In the case of `O=[N+]([O-])c1ccc2[nH]c(=S)[nH]c(=S)c2c1`, the TGI in the experiment with CCRF-CEM leukemia, in the experiment on HCC-2998 colon, in the experiment with T-47D breast, in the experiment on K-562 leukemia, with OVCAR-8 ovarian and in the experiment with HOP-92 NSCLC was more than 100 µM each time. The TGI in the experiment with CAKI-1 renal, in the experiment with MDA-N, in the experiment with SK-OV-3 ovarian and in the experiment with U251 CNS was more than 100 µM in each case.

`Fc1ccc2c(c1)nc1n2C(c2c(Cl)cccc2Cl)SC1` (configuration not stated): the TGI in the experiment on HCC-2998 colon was determined as 29.9 µM; in the experiment on T-47D breast it was 38.4 µM; with OVCAR-8 ovarian, 29 µM; in the experiment on HOP-92 NSCLC, 20 µM; with CAKI-1 renal it was 25 µM; in the experiment with MDA-N, 24.5 µM. In addition, the TGI was 28.3 µM in the experiment with SK-OV-3 ovarian and 25.8 µM in the experiment with U251 CNS.

For `CC(=O)OC(OC(C)=O)c1ccc2ccc3cccc4ccc1c2c34`, the TGI in the experiment with CCRF-CEM leukemia is more than 100 µM; in the experiment on HCC-2998 colon, 24.5 µM; in the experiment with T-47D breast, 68 µM; in the experiment on K-562 leukemia it was 96.2 µM; with OVCAR-8 ovarian it was more than 100 µM; in the experiment with HOP-92 NSCLC, 42.3 µM. Also, the TGI with CAKI-1 renal amounted to 32.5 µM; with MDA-N, 36.9 µM; in the experiment with SK-OV-3 ovarian, 53.4 µM; in the experiment on U251 CNS, 41.8 µM.

With `CO/N=C(\C(=O)OC(=NC1CCCCC1)NC1CCCCC1)c1csc(NC(c2ccccc2)(c2ccccc2)c2ccccc2)n1`, the TGI in the experiment on CCRF-CEM leukemia, in the experiment with HCC-2998 colon, in the experiment with T-47D breast, in the experiment with K-562 leukemia, with OVCAR-8 ovarian and with HOP-92 NSCLC was more than 10 µM each time. In addition, the TGI in the experiment with CAKI-1 renal, with MDA-N, with SK-OV-3 ovarian and in the experiment on U251 CNS was more than 10 µM in each case.

On to `CO/N=C(\C)c1ccc(Nc2nc3ccccc3c3occc23)cc1`, for which the TGI with CCRF-CEM leukemia was determined as 42.2 µM; in the experiment on HCC-2998 colon it was 30.4 µM; in the experiment on T-47D breast, 28.9 µM; in the experiment with K-562 leukemia, 50.7 µM; in the experiment on OVCAR-8 ovarian, 33.9 µM; in the experiment with HOP-92 NSCLC, 27.6 µM. In addition, the TGI in the experiment on CAKI-1 renal came to 32 µM; in the experiment with MDA-N it was 28.7 µM; with SK-OV-3 ovarian, 29.5 µM; with U251 CNS it was 35.6 µM.

In the case of `C=CCn1c(N)c(C#N)c(C#N)c1-c1ccccc1`, the TGI with CCRF-CEM leukemia, in the experiment on HCC-2998 colon, in the experiment with T-47D breast, in the experiment on K-562 leukemia, in the experiment with OVCAR-8 ovarian and in the experiment on HOP-92 NSCLC was more than 100 µM throughout. Also, the TGI with CAKI-1 renal, in the experiment with MDA-N, in the experiment on SK-OV-3 ovarian and in the experiment with U251 CNS was more than 100 µM throughout.

Consider `O=c1[nH]cnc2c1cnn2Cc1cn(CCCCO)nn1`, for which the TGI with CCRF-CEM leukemia, with HCC-2998 colon, in the experiment on T-47D breast, with K-562 leukemia, with OVCAR-8 ovarian and with HOP-92 NSCLC was more than 100 µM throughout. The TGI with CAKI-1 renal, in the experiment with MDA-N, with SK-OV-3 ovarian and in the experiment with U251 CNS was more than 100 µM throughout.

On to `O=C1Nc2cccc(Cl)c2/C1=C\c1c(Cl)nc2n1CCS2`, for which the TGI in the experiment with CCRF-CEM leukemia, with HCC-2998 colon, in the experiment on T-47D breast, in the experiment on K-562 leukemia, with OVCAR-8 ovarian and in the experiment with HOP-92 NSCLC was more than 100 µM in each case. Also, the TGI with CAKI-1 renal, in the experiment with MDA-N, in the experiment with SK-OV-3 ovarian and with U251 CNS was more than 100 µM in each case.

Turning to `CCOC(=O)CCC(NC(=O)Cc1ccc(Nc2nc3cc(F)c(F)cc3nc2C(=O)OCC)cc1)C(=O)OCC` (configuration not stated), the TGI was 46.9 µM with CCRF-CEM leukemia; more than 100 µM in the experiment on HCC-2998 colon; 78.8 µM in the experiment with T-47D breast; more than 100 µM with K-562 leukemia; more than 100 µM in the experiment with OVCAR-8 ovarian; 82.1 µM in the experiment on HOP-92 NSCLC. The TGI in the experiment on CAKI-1 renal, in the experiment on MDA-N, with SK-OV-3 ovarian and with U251 CNS was more than 100 µM in each case.

On to `CCOC1(OCC)C2C=CC1C(COS(=O)(=O)c1ccc(C)cc1)C2COS(=O)(=O)c1ccc(C)cc1` (configuration not stated), for which the TGI is more than 100 µM with CCRF-CEM leukemia; more than 100 µM in the experiment on HCC-2998 colon; 85.1 µM in the experiment with T-47D breast; more than 100 µM in the experiment with K-562 leukemia; more than 100 µM in the experiment on OVCAR-8 ovarian; 48 µM with HOP-92 NSCLC. Further, the TGI in the experiment on MDA-N, in the experiment with SK-OV-3 ovarian and in the experiment with U251 CNS was more than 100 µM in each case.

On to `O=C(O)CCCc1nc2c(n1Cc1ccccc1)C(=O)c1ccccc1C2=O`, for which the TGI in the experiment with CCRF-CEM leukemia was 43.8 µM; with HCC-2998 colon, more than 100 µM; in the experiment with T-47D breast, more than 100 µM; in the experiment with K-562 leukemia it was more than 100 µM; in the experiment with OVCAR-8 ovarian, more than 100 µM; with HOP-92 NSCLC, more than 100 µM. The TGI with CAKI-1 renal was more than 100 µM; in the experiment on MDA-N, 67.1 µM; in the experiment with SK-OV-3 ovarian, more than 100 µM; in the experiment on U251 CNS it was more than 100 µM.

As to `[N-]=[N+]=Nc1c([N+](=O)[O-])c(=O)n(-c2ccccc2)c2ccccc12`, the TGI in the experiment on CCRF-CEM leukemia is 92.4 µM; with HCC-2998 colon it was more than 100 µM; in the experiment with T-47D breast, more than 100 µM; in the experiment on K-562 leukemia it was 64.8 µM; in the experiment on OVCAR-8 ovarian, 48.9 µM; in the experiment on HOP-92 NSCLC it was 86.9 µM. In addition, the TGI is 56.3 µM in the experiment with CAKI-1 renal, 83.2 µM with MDA-N, more than 100 µM in the experiment on SK-OV-3 ovarian and 49.3 µM with U251 CNS.

Turning to `CCN(CC)CCNc1ccc2nnn3c4ccc(OCCN(CC)CC)cc4c(=O)c1c23`, the TGI in the experiment on CCRF-CEM leukemia is 49 µM; in the experiment with HCC-2998 colon, more than 100 µM; in the experiment on T-47D breast, more than 100 µM; with K-562 leukemia it was more than 100 µM; in the experiment with OVCAR-8 ovarian it was more than 100 µM; in the experiment on HOP-92 NSCLC, more than 100 µM. The TGI with CAKI-1 renal, with MDA-N, in the experiment with SK-OV-3 ovarian and in the experiment on U251 CNS was more than 100 µM each time.

Regarding `Nc1ccc2c(c1)C(=O)N1CCC[C@H]1C(=O)N2`, the TGI in the experiment on CCRF-CEM leukemia was 20.5 µM; in the experiment on HCC-2998 colon it was more than 100 µM; with T-47D breast, more than 100 µM; in the experiment with K-562 leukemia it was more than 100 µM; in the experiment on OVCAR-8 ovarian, more than 100 µM; in the experiment on HOP-92 NSCLC, more than 100 µM. Further, the TGI in the experiment with CAKI-1 renal, in the experiment with MDA-N, with SK-OV-3 ovarian and in the experiment on U251 CNS was more than 100 µM in each case.

Values taken from PubChem BioAssay (NCI).
